What was measured:
Type in all cases: functional
Culex pipiens pallens [1] = test: Larvicidal activity against fourth-instar larval stage of Culex pipiens pallens (mosquito) assessed as mortality at 0.001 mg/l at 25 +/-1 degC after 8 days; details: 192 h
Culex pipiens pallens [2] = test: Larvicidal activity against fourth-instar larval stage of Culex pipiens pallens (mosquito) assessed as mortality at 0.0025 mg/l at 25 +/-1 degC after 8 days; details: 192 h
Culex pipiens pallens [3] = test: Larvicidal activity against fourth-instar larval stage of Culex pipiens pallens (mosquito) assessed as mortality at 0.005 mg/l at 25 +/-1 degC after 8 days; details: 192 h
Culex pipiens pallens [4] = test: Larvicidal activity against fourth-instar larval stage of Culex pipiens pallens (mosquito) assessed as mortality at 0.01 mg/l at 25 +/-1 degC after 8 days; details: 192 h
Mythimna separata [5] = test: Larvicidal activity against fourth-instar larval stage of Mythimna separata (Oriental armyworm) in compound-pretreated corn leaves assessed as mortality at 5 mg/l at 25 +/-1 degC after 4 days
Mythimna separata [6] = test: Larvicidal activity against fourth-instar larval stage of Mythimna separata (Oriental armyworm) in compound-pretreated corn leaves assessed as mortality at 10 mg/l at 25 +/-1 degC after 4 days
Mythimna separata [7] = test: Larvicidal activity against fourth-instar larval stage of Mythimna separata (Oriental armyworm) in compound-pretreated corn leaves assessed as mortality at 25 mg/l at 25 +/-1 degC after 4 days
Mythimna separata [8] = test: Larvicidal activity against fourth-instar larval stage of Mythimna separata (Oriental armyworm) in compound-pretreated corn leaves assessed as mortality at 2.5 mg/l at 25 +/-1 degC after 4 days
Mythimna separata [9] = test: Larvicidal activity against fourth-instar larval stage of Mythimna separata (Oriental armyworm) in compound-pretreated corn leaves assessed as mortality at 1 mg/l at 25 +/-1 degC after 4 days
Cucumis sativus = test: Growth regulation of Cucumis sativus (cucumber) seeds assessed as stimulation of radicle growth at 10 mg/l at 26 degC after 5 days
Culex pipiens pallens [10] = test: Larvicidal activity against fourth-instar larval stage of Culex pipiens pallens (mosquito) assessed as mortality at 0.25 mg/l at 25 +/-1 degC after 8 days; details: 192 h
Culex pipiens pallens [11] = test: Larvicidal activity against fourth-instar larval stage of Culex pipiens pallens (mosquito) assessed as mortality at 0.5 mg/l at 25 +/-1 degC after 8 days; details: 192 h
Culex pipiens pallens [12] = test: Larvicidal activity against fourth-instar larval stage of Culex pipiens pallens (mosquito) assessed as mortality at 1 mg/l at 25 +/-1 degC after 8 days; details: 192 h
Culex pipiens pallens [13] = test: Larvicidal activity against fourth-instar larval stage of Culex pipiens pallens (mosquito) assessed as mortality at 0.1 mg/l at 25 +/-1 degC after 8 days; details: 192 h
Mythimna separata [14] = test: Larvicidal activity against fourth-instar larval stage of Mythimna separata (Oriental armyworm) in compound-pretreated corn leaves assessed as mortality at 50 mg/l at 25 +/-1 degC after 4 days
Mythimna separata [15] = test: Larvicidal activity against fourth-instar larval stage of Mythimna separata (Oriental armyworm) in compound-pretreated corn leaves assessed as mortality at 100 mg/l at 25 +/-1 degC after 4 days
Mythimna separata [16] = test: Larvicidal activity against fourth-instar larval stage of Mythimna separata (Oriental armyworm) in compound-pretreated corn leaves assessed as mortality at 200 mg/l at 25 +/-1 degC after 4 days
Culex pipiens pallens [17] = test: Larvicidal activity against fourth-instar larval stage of Culex pipiens pallens (mosquito) assessed as mortality at 0.05 mg/l at 25 +/-1 degC after 8 days; details: 192 h
Culex pipiens pallens [18] = test: Larvicidal activity against fourth-instar larval stage of Culex pipiens pallens (mosquito) assessed as mortality at 0.025 mg/l at 25 +/-1 degC after 8 days; details: 192 h

Compound | mortality at 0.001 µg/mL (Culex pipiens pallens [1]) | mortality at 0.0025 µg/mL (Culex pipiens pallens [2]) | mortality at 0.005 µg/mL (Culex pipiens pallens [3]) | mortality at 0.01 µg/mL (Culex pipiens pallens [4]) | mortality at 5 µg/mL (Mythimna separata [5]) | mortality at 10 µg/mL (Mythimna separata [6]) | mortality at 25 µg/mL (Mythimna separata [7]) | mortality at 2.5 µg/mL (Mythimna separata [8]) | mortality at 1 µg/mL (Mythimna separata [9]) | Activity (Cucumis sativus) | mortality at 0.25 µg/mL (Culex pipiens pallens [10]) | mortality at 0.5 µg/mL (Culex pipiens pallens [11]) | mortality at 1 µg/mL (Culex pipiens pallens [12]) | mortality at 0.1 µg/mL (Culex pipiens pallens [13]) | mortality at 50 µg/mL (Mythimna separata [14]) | mortality at 100 µg/mL (Mythimna separata [15]) | mortality at 200 µg/mL (Mythimna separata [16]) | mortality at 0.05 µg/mL (Culex pipiens pallens [17]) | mortality at 0.025 µg/mL (Culex pipiens pallens [18])
O=C(NC(=O)c1c(F)cccc1F)Nc1ccc(/C=N/OCC2CC2)cc1 | 0% | 60% | 100% | 100% | 100% | 100% | 100% | 90% | 0% |  |  |  |  |  |  |  |  |  | 
O=C(NC(=O)c1c(F)cccc1F)Nc1ccc(/C=N/OCc2ccccc2)cc1 |  |  |  |  |  |  | 0% |  |  | 60% | 20% | 100% | 100% | 10% | 10% | 30% | 40% |  | 
CO/N=C/c1ccc(NC(=O)NC(=O)c2c(F)cccc2F)cc1 |  |  |  | 0% |  |  | 0% |  |  | 30% | 100% | 100% | 100% | 100% | 40% | 90% |  | 100% | 10%
CCO/N=C/c1ccc(NC(=O)NC(=O)c2c(F)cccc2F)cc1 |  |  |  | 0% | 0% | 10% | 75% |  |  | 0% | 100% | 100% | 100% | 100% | 100% | 100% |  |  | 10%
CCCO/N=C/c1ccc(NC(=O)NC(=O)c2c(F)cccc2F)cc1 |  |  |  |  |  |  | 20% | 0% |  |  | 100% | 100% | 100% | 100% | 70% | 80% |  | 50% | 0%
O=C(NC(=O)c1c(F)cccc1F)Nc1ccc(/C=N/OCCCl)cc1 |  |  |  | 0% | 75% | 100% |  | 55% | 0% | 110% | 100% | 100% | 100% | 90% | 100% |  |  | 90% | 20%
O=C(NC(=O)c1c(F)cccc1F)Nc1ccc(/C=N/OCCF)cc1 |  |  |  |  |  | 20% | 90% | 0% |  | 110% | 100% | 100% | 100% | 60% | 90% |  |  | 10% | 0%
C=CCO/N=C/c1ccc(NC(=O)NC(=O)c2c(F)cccc2F)cc1 |  |  |  |  |  | 0% | 10% |  |  | 120% | 100% | 100% | 100% | 90% | 66.7% | 90% |  |  | 0%
C#CCO/N=C/c1ccc(NC(=O)NC(=O)c2c(F)cccc2F)cc1 |  |  |  | 0% |  | 55% | 75% | 10% | 0% |  | 100% | 100% | 100% | 100% | 100% |  |  | 40% | 10%
COC(=O)CO/N=C/c1ccc(NC(=O)NC(=O)c2c(F)cccc2F)cc1 |  |  |  |  |  | 10% | 30% | 0% |  |  | 80% | 100% | 100% | 0% | 56.7% | 80% | 90% |  | 
COCCO/N=C/c1ccc(NC(=O)NC(=O)c2c(F)cccc2F)cc1 |  |  |  |  |  |  |  |  |  | 30% |  | 0% | 100% |  | 0% | 10% | 40% |  | 

From ChEMBL document CHEMBL3045590, “Design, synthesis, bioactivity, and structure-activity relationship (SAR) studies of novel benzoylphenylureas containing oxime ether group” (2008)
